Laboratory results reported in article PMC10222328 (Pharmaceuticals, 2023).

The molecules below were run against T1, COX-2 (Homo sapiens, UniProt P35354) (assay: Fluorometric COX-2 inhibitor screening kit). Conditions: at 10 µM; mean ± standard error of two measurements; read-out: COX-2 Percent of Inhibition.
T1 construct: purchased Abcam, UK
T1 sequence (P35354 18-604): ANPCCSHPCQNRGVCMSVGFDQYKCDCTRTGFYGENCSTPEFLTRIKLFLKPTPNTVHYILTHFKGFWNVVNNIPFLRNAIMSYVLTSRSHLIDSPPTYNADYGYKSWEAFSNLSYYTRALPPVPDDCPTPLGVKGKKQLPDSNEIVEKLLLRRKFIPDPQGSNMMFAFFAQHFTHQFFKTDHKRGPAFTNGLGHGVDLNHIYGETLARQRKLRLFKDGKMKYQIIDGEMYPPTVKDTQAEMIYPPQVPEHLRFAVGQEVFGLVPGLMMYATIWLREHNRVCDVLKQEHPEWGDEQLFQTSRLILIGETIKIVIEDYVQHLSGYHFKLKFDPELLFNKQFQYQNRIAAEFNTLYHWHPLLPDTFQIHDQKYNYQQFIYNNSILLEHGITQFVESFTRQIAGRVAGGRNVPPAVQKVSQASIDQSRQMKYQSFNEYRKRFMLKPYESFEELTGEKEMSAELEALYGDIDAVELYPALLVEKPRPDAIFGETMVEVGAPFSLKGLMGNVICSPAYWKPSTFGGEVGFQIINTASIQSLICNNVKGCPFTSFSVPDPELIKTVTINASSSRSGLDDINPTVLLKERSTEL
Assay type: biochemical
Method: COX-2 and 5-LOX inhibitory activities were tested using fluorometric COX-2 and 5-LOX inhibitor screening kits (Abcam, UK). These assays are based on the fluorometric detection of Prostaglandin G2 (a product generated by the COX enzyme) or on the fluorometric detection of intermediate generated by the 5-LOX enzyme. The experiments were conducted according to the manufacturers’ instructions.
For the determination of COX-2 inhibitory activity, tested compounds were dissolved in DMSO (5 mM stock solutions) and then diluted with the same solvent to obtain test solutions. Test solutions were further diluted 5X with COX assay buffer (2 µL of test solution and 8 µL COX assay buffer). […] Solvent control (SC) was prepared by adding 2 µL DMSO and 8 µL COX assay buffer, while sample (S) and enzyme control (EC) were prepared by adding 10 µL of diluted test solution and COX assay buffer, respectively, into assigned wells. For the determination of 5-LOX inhibitory activity, tested compounds were also dissolved in DMSO to prepare stock solutions with the same concentration (5mM), which were then diluted with the same solvent to obtain test solutions. Subsequently, test solutions were added to corresponding wells (2 µL).

CCOC(=O)C(Cc1ccccc1)NC(=S)NC(=O)C(C)c1ccc2cc(OC)ccc2c1 [Compound 6, Ethyl(((S)-2-(6-methoxynaphthalen-2-yl)propanoyl)carbamothioyl)-L-phenylalaninate] and COC(=O)[C@H](Cc1cn(C)c2ccccc12)NC(=S)NC(=O)[C@@H](C)c1ccc2cc(OC)ccc2c1 [Compound 7, Methyl-N^α-(((S)-2-(6-methoxynaphthalen-2-yl)propanoyl)carbamothioyl)-1-methyltryptophanate] are within error of each other in inhibition at 10 µM: 24 ± 5.36% for the first, 24.2 ± 5.77% for the second.

CCOc1ccc(NC(=S)NC(=O)[C@@H](C)c2ccc3cc(OC)ccc3c2)cc1 [Compound 3, (S)-N-((4-ethoxyphenyl)carbamothioyl)-2-(6-methoxynaphthalen-2-yl)propanamide] and COc1ccc(NC(=S)NC(=O)[C@@H](C)c2ccc3cc(OC)ccc3c2)cc1 [Compound 2, (S)-2-(6-methoxynaphthalen-2-yl)-N-((4-methoxyphenyl)carbamothioyl)propanamide] are within error of each other in inhibition at 10 µM: 23.4 ± 0.57% for the first, 18.8 ± 4.37% for the second.

COc1ccc2cc([C@H](C)C(=O)NC(=S)Nc3ccc(C(C)=O)cc3)ccc2c1 [Compound 5, (S)-N-((4-acetylphenyl)carbamothioyl)-2-(6-methoxynaphthalen-2-yl)propanamide] and COc1ccc2cc([C@H](C)C(=O)NC(=S)Nc3ccc(F)cc3)ccc2c1 [Compound 1, (S)-N-((4-fluorophenyl)carbamothioyl)-2-(6-methoxynaphthalen-2-yl)propanamide] are within error of each other in inhibition at 10 µM: 19.6 ± 4.55% for the first, 24.7 ± 1.11% for the second.

With COc1cccc(NC(=S)NC(=O)[C@@H](C)c2ccc3cc(OC)ccc3c2)c1 [Compound 4, (S)-2-(6-methoxynaphthalen-2-yl)-N-((3-methoxyphenyl)carbamothioyl)propanamide] the inhibition at 10 µM was 37.71 ± 0.28%.
